One molecule from US20260365662A1, “ISOANDROGRAPHOLIDE ANALOGS AND METHOD FOR TREATMENT USING THE SAME” (Enveda Therapeutics, Inc., priority 2023, published 2026) can be followed below.

This experiment has as its system female BALB/c mouse. Description: Hapten-induced atopic dermatitis model (Example 13). Format: in vivo. As to conditions: for itch / number of scratches in scratch test: 10 minutes, day 13, four hours after last challenge; for immune cell infiltration: histopathology; for immune cell infiltration / epidermal thickness / histopathological changes / histopathology score: back skin; for epidermal thickness / histopathological changes / histopathology score / IL-4 expression: prophylactic; for IL-4 expression / dermatitis severity scores: vs hapten vehicle control; for dermatitis severity scores: twice a day, 14 days. As for the experimental part: Experimental details: Preclinical animal model of atopic dermatitis was developed by [COMPOUND LEFT OUT] [COMPOUND LEFT OUT], a Hapten. In the current study, the test item Compound 2 was screened to evaluate its efficacy in [COMPOUND LEFT OUT] induced AD model. 0.15% of [COMPOUND LEFT OUT] was topically applied to 7-8 weeks old female BALB/c mouse from G2-G7 group at a volume of 100 μl/mouse on back skin once in 3 days to induced disease. For the G1 group, (Vehicle control) the same volume of acetone and olive oil (3:1) that was used to solubilize [COMPOUND LEFT OUT] was applied. Dexamethasone (5 mg/kg, p.o, qd) was dosed per oral once a day to G3 group animals. Compound 2 was administered twice a day to respective treatment groups (G4-G6) for 14 days. On the day of [COMPOUND LEFT OUT] administration, test compounds were dosed one hour prior to [COMPOUND LEFT OUT] insult. Clinical scores to assess the disease intensity were measured from visual examination for erythema, scaling, excoriation, and back skin thickness using dial caliper. All the scores were carried by blinded observers to treatment groups. Cumulative dermatitis severity scores were calculated by adding up the individual scores of erythema, scaling, thickness & excoriation. On day-13 of the study, four hours after the last [COMPOUND LEFT OUT] challenge, scratching behavior was recorded using a web camera in acrylic observational chambers. The number of scratches were measured for 10 minutes. Later, all the animals were terminally bled under mild anesthesia followed by humane sacrifice and back skin tissue was dissected. Required skin tissue samples were collected in fixative and part of the tissue was flash-frozen in liquid nitrogen and stored at −80 °C. Collected tissue samples were processed and used for biomarker analysis using gene and protein expression analysis by qPCR & ELISA, pharmacokinetic analysis by LC-MS and histopathology studies.

Entries after “also recorded” stand apart in the source; their conditions may differ.

In the case of `C[C@@]12CCC(=O)N[C@@](C)(CO)[C@H]1CC[C@@]1(C)O[C@H](C3=CCOC3=O)C[C@@H]21` [Compound 2, (2S,3aR,5aS,6R,10aR,10bS)-6-(hydroxymethyl)-3a,6,10a-trimethyl-2-(2-oxo-2,5-dihydrofuran-3-yl) dodecahydro-8H-benzofuro[5,4-c]azepin-8-one], the “itch / number of scratches in scratch test” value was “reduced”, the immune cell infiltration result is “significantly reduced”, the epidermal thickness result was “significantly reduced” and the “histopathological changes / histopathology score” value is reported as “significantly reduced”. Besides, the IL-4 expression result is listed as “reduced” and the dermatitis severity scores result is listed as “Significantly Reduces; also recorded: dose dependent decrease”. For the same molecule, where the note is “listed as compound 2”, the “itch / number of scratches in scratch test” value is on record as “reduces itch comparably to current first line therapy”, the immune cell infiltration entry is “reduces immune cell infiltration”, the epidermal thickness result is reported as “significantly reduces” and the “histopathological changes / histopathology score” value was “ameliorates; also recorded: significantly reduces”. For the setting “listed as compound 2”, the IL-4 expression result is on record as “impacts IL-4 expression” and the dermatitis severity scores result is on record as “dose dependent decrease”.
